# In patent US12480950B2, “AKT-specific capture agents, compositions, and methods of using and making” (California Institute of Technology, priority 2011, dated 2025):
# Where two headings read alike, the source gives them in different places. Bridge positions count the residues as written; N and C are the ends. Square brackets hold non-standard residues; d marks the D form. Ends that are not written are not given here. I, II: the chains in the order shown. dPra = C#CC[C@@H](N)C(=O)O; C8N3 = not defined here
# Key:
# Akt [1] = assay: Immunofluorescent imaging of Akt in fixed OVCAR3 cells; type: cell-based; conditions: unstimulated or EGF-treated
# Protocol: OVCAR3 cells were grown on polylysine coated coverslips and treated with either 500 ng/mL EGF (Sigma) or vehicle control for 10 minutes. Cells were then fixed with 10% formaldehyde for 15 min at 37° C., washed with PBS, permeablized by incubating with 0.1% Triton X-100 for 10 min at room temperature, and blocked with 5% goat serum. Permeabilized cells were stained with either a fluorescein-conjugated Pan Akt antibody (R&D Systems IC2055F, 10 μg/mL) overnight or 1 μM fluorescein conjugated biligand for 1 hour. Images were acquired using a Zeiss Pascal 5 Laser Scanning Microscope (Caltech Biological Imaging Center) and surface plots were generated with ImageJ software (NIH). For this assay, Akt was expected to locate to the cell membrane following stimulation of a receptor tyrosine kinase such as epidermal growth factor receptor (EGFR) by its ligand (EGF). Images of unstimulated and stimulated cells clearly reveal that this was the case (FIG. 18).
# Akt2 = target: T1, Akt2 (Homo sapiens, UniProt P31751); assay: Akt2 kinase activity assay, p-GSK-3a/b Western blot; type: biochemical; conditions: p-GSK-3a/b abundance, active Akt2
# T1 construct: purchased Abcam
# Description: PCC compositions, developed using the epitope targeting strategy, make non-traditional enzyme inhibitors. If Akt2 is activated by phosphorylation of Ser474 then, in that state, it phosphorylates GSK-3a/b. If it is further activated via a steric effect, then it will produce more p-GSK-3a/b. If that same Akt2 is inhibited, then it will produce less p-GSK-3a/b. Thus, the signature of Akt inhibition (or activation) is read out as p-GSK-3a/b abundance, relative to the DMSO control. Assays are shown at right in the form of Western Blots. The DMSO column gives the baseline level. The n-terminal triligand the biligand, the dimer of the n-terminal triligand, and the commercial monoclonal antibody all activate Akt relative to DMSO. The c-terminal triligand inhibits Akt. The ‘hi’ and ‘low’ blots correspond to long and short development times, respectively. The Akt2 protein used for the inhibition assay is active Akt2 that is phosphorylated at Thr308, and is at least partially phosphorylated at Ser474, since the antibody for pSer474 detects the pSer474.
# Akt [2] = target: T2, Akt (Homo sapiens, UniProt P31751); assay: Detection of Akt from OVCAR3 cell lysate by anti-Ser474 Akt2 capture agents; type: binding
# T2 construct: endogenous in cells; host or cells: OVCAR3
# Description: The characteristics of this best ligand were improved through use of sequential in situ click chemistry, as described in Capture Agents and Related Compositions, Methods, and Systems CIT 5164-P; and Akt-Specific Capture Agents, Compositions, and Methods of Using and Making. CIT 5917-P, Agnew, et al., Angew. Chem. 121, p 5044-5048 (2009), and Millward, et al., J. Am. Chem. Soc. 133, 1820 (2011), incorporated herein by reference in their entireties. For these steps, the capture agent that was identified in Steps (1)-(4) was improved into a biligand (FIG. 36b), and then a triligand (FIG. 36c).
# Akt-S473E [3] = assay: ELISA with immobilized Akt-S473E, relative affinity of biotinylated ligands; type: binding, H. sapiens; conditions: triligand versus biligand
# Protocol: Akt-S473E was immobilized on Ni-NTA plates and incubated with varying concentrations of biotinylated peptide. All values were normalized to the binding observed at saturation.
# The affinity of the anchor ligand, biligand, and triligand developed in Example 1 was determined by ELISA with immobilized Akt-S473E.
# 3 μg of Akt-S473E was added to each well in a HisSorb Ni-NTA plate (Qiagen) in 50 μL of ELISA blocking buffer (25 mM Tris-Cl (pH=7.5), 150 mM NaCl, 10 mM MgCl2, 0.1% (v/v) Tween-20, and 4 mg/mL BSA). 50 μL of imidazole blocking buffer (25 mM Tris-Cl (pH=7.5), 150 mM NaCl, 10 mM MgCl2, 0.1% (v/v) Tween-20, 100 mM imidazole, and 4 mg/mL BSA) was added to the control wells. After 18 hours at 4° C., the wells were washed with ELISA blocking buffer and 50 μL of each ligand dilution was added in ELISA blocking buffer. The ligands were bound at 4° C. for 120 minutes followed by three washed in ELISA blocking buffer. 50 μL of horseradish peroxidase-conjugated streptavidin (SA-HRP, Thermo) was added (1:5000 dilution in ELISA blocking buffer) and incubated for 70 minutes at 4° C. […] 50 μL of peroxidase substrate (KPL) was added to generate the final signal which was quenched in 1 M H2SO4 and quantitated on a 96-well plate reader at X=450 nm. The Net A450 was calculated by subtracting the A450 of each blank well (No Akt-S473E) from the experimental well. […]
# Akt1-S473E-T308P = target: Akt1-S473E-T308P
# Description: FIG. 22A: Velocity vs. [Peptide substrate] with varying concentration of inhibitory triligand. FIG. 22B: Velocity vs. [ATP] with varying concentration of inhibitory triligand.
# FIGS. 23A-23D show determination of Ki′ and inhibition mode for triligand with respect to peptide substrate. FIG. 23A: Plot of 1/KM(app) vs. [Triligand]. KM(app) were obtained from nonlinear regression analysis of velocity vs. [Peptide] curves obtained with varied concentrations of triligand (Graphpad). The error bars represent the standard error of KM(app) by nonlinear regression. 95% confidence intervals are shown as dotted lines. […] FIG. 23B: Plot of 1/Vmax(app) vs. [Triligand]. Values for Vmax(app) and standard error were obtained by nonlinear regression as described above. […] FIG. 23C: Dixon plot of 1/v vs. [Triligand] at various [Peptide]. Data from low peptide concentrations were removed to account for possible substrate depletion. […] FIG. 23D: Cornish-Bowden plot of [Peptide]/v vs. [Triligand] at various [Peptide]. The intersection of the lines gives the −Ki′.
# FIG. 24A: Plot of 1/KM(app) vs. [Triligand]. KM(app) were obtained from nonlinear regression analysis of velocity vs. [ATP] curves obtained with varied concentrations of triligand (Graphpad). The error bars represent the standard error of KM(app) by nonlinear regression. […] FIG. 24B: Plot of 1/Vmax(app) vs. [Triligand]. […] FIG. 24C: Dixon plot of 1/v vs. [Triligand] at various [ATP]. Data from low ATP concentrations were removed due high counting error resulting from low counts per minute (cpm).
# Two standard enzyme kinetic assays were carried out to determine the mode of Akt1 inhibition by the triligand (Segel 1975). For these assays, the kinase activity is measured under varying substrate and triligand concentrations. The resulting data can be interpreted so that the nature of the competition between the triligand and the substrate for the relevant kinase binding site is determined. For example, if the triligand and ATP competed for the same binding pocket, the maximum velocity (Vmax) of the kinase would be unchanged while the Michaelis constant (KM) would increase. The plots can also be used as a means of determining the inhibition constant (Ki) of the triligand.
# Akt-S473E-T308P was prepared by incubating 75 μg Akt-S473E with 1 μg PDK1 (Sigma) in the presence of 500 μM ATP in 1× reaction buffer (25 mM Tris-Cl (pH=7.5), 10 mM MgCl2, 2 mM DTT, 1× protease inhibitors (Roche), 1× phosphatase inhibitors (Roche)). The phosphorylation reaction proceeded for 40 minutes at room temperature followed by addition of 25 mM EDTA. The quenched reaction was added to 40 μL Anti-FLAG M2 agarose (Sigma) and allowed to bind for 2 hr at 4° C. The resin was washed in FLAG Wash Buffer (20 mM HEPES (pH=7.4), 150 mM NaCl, 1× protease inhibitors (Roche), 1× phosphatase inhibitors (Roche)) and the Akt1-S473E-T308P eluted with FLAG Elution Buffer (FLAG wash buffer+0.15 mg/mL 3×FLAG peptide) for 30 minutes at room temperature. The concentration of protein was determined by Bradford assay.
# Akt1-S473E = conditions: SPR, from kinetic parameters, 10° C., Akt1-S473E 9000 nM to 1 nM
# Protocol: For this experiment, the biotinylated triligand was immobilized on a streptavidin-derivatized biacore chip and probed with Akt-S473E at concentrations ranging from 9 μM to 1 nM.
# Triligand binding affinity was further analyzed by SPR using a Biacore T100. A Streptavidin Chip (Series S, G.E. Healthcare) was conditioned as recommended by the manufacturer. Biotinylated ligand was diluted into HBSP+ Buffer (G.E. Healthcare) to a final concentration of 100 nM and 137 RU was immobilized on the chip. Akt1-S473E was prepared as described previously and subjected to buffer exchange into HBSP+ using Zeba Desalting Columns (Pierce). Serial dilutions of the enzyme were made in HBSP+ buffer (9000 nM to 1 nM) and flowed over the chip at 50 μL/minute. Binding and dissociation were carried out at 10° C. with a contact time of 360 seconds, a dissociation time of 400 seconds, and a stabilization time of 200 seconds. The response was corrected using an unmodified reference flow cell. Kinetic constants were obtained from the sensograms and used to calculate the dissociation constant.
# GSK3β = target: T3, GSK3β (Homo sapiens, UniProt P49841); assay: Specificity ELISA, immobilized ligand probed with His-tagged kinases; conditions: A450 normalized to Akt1-S473E binding
# T3 construct: a set of His-tagged active protein kinase domains from the AGC family; purchased Invitrogen
# Protocol: (§1) Biotinylated ligand was immobilized on Streptavidin plates and probed with 25 nM His-tagged kinase followed by anti-Histag antibody-HRP conjugate. Values represent the mean A450 obtained from three experiments after normalization to Akt1-S473E binding. The error bars show the standard error.
# (§2) The specificity of the anchor ligand, biligand, and triligand developed in Example 1 was analyzed using a battery of protein kinases. […] Akt1-S473E was expressed and purified as described above.
# (§3) The relative affinity of each kinase was determined by probing with an anti-His6 antibody and normalizing the response to Akt1-S473E. All proteins were diluted in Akt blocking buffer to a final concentration of 24 nM prior to use. Ligands were diluted in Akt blocking buffer to a final concentration of 2.5 μM prior to use. 100 μL of each ligand (250 pmol) was added to each well of a HBC streptavidin-coated 96-well plate. The ligands were bound at 4° C. for 1 hour followed by addition of D-biotin to a final concentration of 500 μM. After 10 minutes at 4° C., the wells were washed three times with Akt blocking buffer and blocked overnight in 5% non-fat milk.
# (§4) The wells were washed three times in Akt blocking buffer and 50 μL of active protein was applied to each well. After binding for 120 minutes at 4° C., the wells were washed three times in Akt blocking buffer to remove unbound protein. 50 μL of horseradish peroxidase-conjugated Anti-His6 antibody was added at a dilution of 1:100 (His Probe (H-3) HRP conjugate, Santa Cruz Biotechnology). The antibody-HRP conjugate was incubated for 60 minutes and the wells were washed 3 times in TBST and once in TBS. 50 μL of peroxidase substrate (KPL) was added and the resulting color change was quenched with 50 μL 1 M H2SO4. The A450 measured on a 96-well plate reader. […] The mean value for the triplicates was calculated and plotted and the error bars were generated from the standard error of the mean (GraphPad Prism).
# Akt-S473E [4] = conditions: [2H10] antibody directed toward the C-terminus
# Description: Immobilized anchor, biligand, and triligand were probed with varying concentrations of […]. Binding was detected by an anti-Akt1 monoclonal antibody ([2H10]) followed by an anti-mouse secondary antibody-HRP conjugate. The fraction bound was normalized and plotted against the concentration of Akt-S473E on a log scale.
# The C-terminus is effectively on the “backside” of the kinase domain, opposite the active site.
# Akt [5] = assay: Immunoprecipitation of Akt from OVCAR3 cell lysates with immobilized ligands; type: binding; conditions: EGF and insulin induced or control, Western blot with pan-Akt antibody
# Protocol: A representative 12% gel stained with Coomassie and imaged. Lane 1: Lysate, Lane 2: Anchor resin, Lane 3: Biligand resin, Lane 4: Triligand resin, Lane 5: 5G3 mAb resin.
# After 18 hours at 4° C., resins were washed exhaustively, eluted with SDS-PAGE sample buffer, and analyzed by Western blotting. 1. Blank resin, 2. Anchor, 3. Biligand, 4. Triligand, 5. [5G3] mAb, L. lysate.
# For the IP experiments, the anchor, biligand, and triligands were immobilized on streptavidin-agarose, and each resin was panned with OVCAR3 cell lysates obtained from untreated cells or cells stimulated with a combination of epidermal growth factor (EGF) and insulin.
# OVCAR3 cells were grown in RPMI-1640 media containing 10% fetal bovine serum, penicillin, and streptomycin. Passage 4 cells were grown to ˜60% confluence and treated with insulin and EGF at final concentration of 10 μg/mL and 20 ng/mL respectively (induced) or mock treated (control). Cells were grown for an additional 24 hours and then lysed with lysis buffer (10 mM Tris-Cl (pH=7.5), 100 mM NaCl, 1% (v/v) Triton X-100, 0.1% SDS (w/v), 0.5% deoxycholate, 1 mM DTT, 1 mM EDTA, 1× PhosStop phosphatase inhibitors (Roche), 1× Complete protease inhibitors (Roche). Cell lysate protein concentrations were determined by Bradford assays. […]
# Akt1 = assay: Specificity ELISA, immobilized ligand probed with His-tagged kinases; design: species or system H. sapiens; conditions: A450 normalized to Akt1-S473E binding; kinase panel
# Protocol: as §1, §2, §3, §4
# MEK1 = MEK1 (Homo sapiens, UniProt Q02750); conditions: A450 normalized to Akt1-S473E binding
# Protocol: as §1, §2
# as §3, with “After 10 minutes at 4° C., the wells were washed three times with Akt blocking buffer and blocked overnight in 5% non-fat milk.” left out
# The wells were washed three times in Akt blocking buffer and 50 μL of active protein was applied to each well. […] The A450 measured on a 96-well plate reader. […] The mean value for the triplicates was calculated and plotted and the error bars were generated from the standard error of the mean (GraphPad Prism).
# T1 sequence (P31751 whole entry, species assumed): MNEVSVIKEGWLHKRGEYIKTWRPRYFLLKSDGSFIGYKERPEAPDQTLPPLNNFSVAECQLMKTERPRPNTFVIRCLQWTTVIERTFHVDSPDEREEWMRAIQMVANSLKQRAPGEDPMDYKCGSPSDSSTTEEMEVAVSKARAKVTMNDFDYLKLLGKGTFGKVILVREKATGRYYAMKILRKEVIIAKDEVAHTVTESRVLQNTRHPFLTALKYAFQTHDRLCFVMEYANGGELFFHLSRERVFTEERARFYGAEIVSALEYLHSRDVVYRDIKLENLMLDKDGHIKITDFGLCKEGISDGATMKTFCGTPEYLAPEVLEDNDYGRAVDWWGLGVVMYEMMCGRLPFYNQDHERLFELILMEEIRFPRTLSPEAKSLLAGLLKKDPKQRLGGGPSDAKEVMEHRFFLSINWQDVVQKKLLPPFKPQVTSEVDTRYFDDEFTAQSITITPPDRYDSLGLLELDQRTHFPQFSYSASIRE
# T2 sequence (P31751 whole entry): as the sequence (P31751 whole entry, species assumed) above
# T3 sequence (P49841 56-340 limits assumed, species assumed): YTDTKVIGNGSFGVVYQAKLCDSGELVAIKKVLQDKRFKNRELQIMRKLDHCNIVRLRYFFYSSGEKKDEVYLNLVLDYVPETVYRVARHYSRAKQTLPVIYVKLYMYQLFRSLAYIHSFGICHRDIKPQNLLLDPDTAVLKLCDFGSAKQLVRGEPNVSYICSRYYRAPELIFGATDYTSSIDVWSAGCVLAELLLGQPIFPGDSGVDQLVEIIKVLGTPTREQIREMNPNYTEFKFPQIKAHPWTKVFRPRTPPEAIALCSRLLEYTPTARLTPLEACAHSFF
# Chain of MEK1 (Q02750 68-361 limits assumed, species assumed): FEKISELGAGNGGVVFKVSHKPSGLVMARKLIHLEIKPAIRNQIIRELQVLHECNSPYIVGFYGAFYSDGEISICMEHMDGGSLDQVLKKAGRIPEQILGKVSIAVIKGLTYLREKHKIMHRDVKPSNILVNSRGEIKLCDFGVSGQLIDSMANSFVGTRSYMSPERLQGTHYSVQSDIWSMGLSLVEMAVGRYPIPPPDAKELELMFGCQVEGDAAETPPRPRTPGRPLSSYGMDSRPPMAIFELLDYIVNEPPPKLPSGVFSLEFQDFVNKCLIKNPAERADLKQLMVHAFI
compound,measurement,setting,value
"fluorescein-conjugated biligand: biligand with fluorescein derivative on the amino terminus of the secondary peptide (FIG. 17) (chain 1 C8N3-VFYRLGY-NH2; chain 2 FWFLRG-NH2; triazole I:N-II:N; not fully specified (N-terminus); reading uncertain; also: triazole linkage between chains, fluorescein on amino terminus of secondary peptide)",imaging of Akt localisation,Akt [1],distinguishes cytoplasmic or membrane-bound AKT
"dimer of the n-terminal triligand: dimerized n-terminal triligand targeted against Ser474 of Akt2 (FIG. 36E) (peptide 1 [dPra][dW][dK][dV][dK][dL]; peptide 2 FYGNH; peptide 3 YYRFG; numbers in words are those of the source; also: dimer of triligand, chains 2 and 3 stereochemistry not given here)",effect on Akt kinase activity relative to DMSO,Akt2,activate Akt
monoligand: peptide wkvkl (SEQ ID NO:4) coupled to Ac2-Tz4-PEG2-Biotin; targeted against Ser474 of Akt2 ([dW][dK][dV][dK][dL]-NH2; not fully specified (N-terminus); printed as wkvkl; also: coupled to Ac2-Tz4-PEG2-Biotin),detection of Akt from cell lysate,Akt [2],able to detect Akt from cell lysate
CCC(C)[C@H](NC(=O)[C@H](CCCNC(=N)N)NC(=O)[C@H](CCC(=O)O)NC(=O)[C@H](Cc1cnc[nH]1)NC(=O)[C@H](CCCNC(=N)N)NC(=O)C(CCCCCCCCn1cc(CCCC(=O)NC(CCCCCCCCn2cc(C[C@H](NC(C)=O)C(=O)N[C@@H](Cc3ccccc3)C(=O)N[C@@H](Cc3c[nH]c4ccccc34)C(=O)N[C@@H](Cc3ccccc3)C(=O)N[C@@H](CC(C)C)C(=O)NC(CCCNC(=N)N)C(=O)NCC(N)=O)nn2)C(=O)N[C@H](C(=O)N[C@@H](Cc2ccccc2)C(=O)N[C@@H](Cc2ccc(O)cc2)C(=O)N[C@@H](CCCNC(=N)N)C(=O)N[C@@H](CC(C)C)C(=O)NCC(=O)N[C@@H](Cc2ccc(O)cc2)C(=O)NCCNC(=O)CCCCC2SCC3NC(=O)NC32)C(C)C)nn1)NC(C)=O)C(N)=O (some centres unmarked) [triligand],affinity gain,Akt-S473E [3],2-3 fold
same,Ki,"Akt1-S473E-T308P; V vs. [ATP], variable [Triligand], Dixon plot, mean ± standard deviation",4000 nM
same,Ki,"Akt1-S473E-T308P; V vs. [Peptide], variable [Triligand], Dixon plot, mean ± standard deviation",2600 nM
same,Ki,"Akt1-S473E-T308P; read-out: X-intercept of 1/Vmax(app) vs. [Triligand], varied ATP, wide error range based on the 95% CI",5800 nM
same,Ki,"Akt1-S473E-T308P; read-out: X-intercept of 1/Vmax(app) vs. [Triligand], varied peptide substrate",1700 nM
same,X-intercept (−Ki′) of 1/KM(app) vs. [Triligand],Akt1-S473E-T308P; varied peptide substrate,3600 nM
same,Inhibition mode,Akt1-S473E-T308P; with respect to ATP,Noncompetitive
same,Inhibition mode,Akt1-S473E-T308P; with respect to peptide substrate,Uncompetitive
same,Kd,Akt1-S473E,200 nM
same,binding to GSK3β,GSK3β,significantly reduced
same,overlap of binding site with anti-Akt1 antibody,Akt-S473E [4],may partially overlap
same,immunoprecipitation of Akt,Akt [5],somewhat increased immunoprecipitation of Akt relative to the biligand in induced cell lysates but not in the non-induced control cell lysate
same,specificity / selectivity for Akt1,Akt1,selectivity for Akt1 is clearly enhanced
same,off-target binding to MEK1,MEK1,completely eliminated
